In patent US20140000476A1, “HYDROPHOBIC AND LIPOPHOBIC COMPOSITION COMPRISING COMPOUNDS HAVING A BISPHOSPHONIC AND THIOL GROUP” (SURFACTIS TECHNOLOGIES, priority 2010, published 2014):

Test: Contact angle on coated gold
Type: physicochemical
Details: molecule alone at 10^−3M, soaking 30 minutes
Method: Degrease the parts by washing in a solvent (acetone or IPA) under ultrasound for 5 minutes then dry the parts under a stream of hot air.
Deposit • Place the part or parts in a container with an adapted shape • Cover the part or parts with coating solution (thiol, BP or BP/thiol-PFPE mixture), • Incubate between 5 minutes and 360 minutes, • Eliminate the supernatant—remove the part, • The part is drip dried (centrifugation).
Dehydration—Rinsing • The part which received the deposit is placed in an oven at 120° C. for a period ranging from 6 to 15 h (only for rubies and silicon), • The part is brought back to room temperature then immersed in IPA under ultrasound for 2 minutes, • The part is dried under a stream of hot air. […]
The lipophobic effect was evaluated by measuring the contact angles of a test oil having surface tension of 33 mN/m on different surfaces.
According to the deposit procedure described in paragraph 3, the materials were treated by the mixture of the thiol molecule I.3. with the BP molecule II.1. dissolved in IPA. The contact angles were measured before and after treatment of the surface. […]
The properties of thiol and bisphosphonate molecules in isolation were measured on the surfaces of steel and gold-plated substrates using solutions at 10^−3 M and in isopropanol in accordance with the protocol described in example 3 above, with a soaking time of 5 minutes.

SMILES: O=C(NCCS)C(F)(F)C(F)(F)C(F)(F)C(F)(F)C(F)(F)C(F)(F)C(F)(F)F [I.5]
- contact angle of the gold-plated brass part with the test oil (solvent IPA): 67.6 ± 3.6°
- contact angle of the gold-plated brass part with the test oil (solvent MMCC (Biosane T212)): 49.5 ± 2.5°
